Reference: EPA's ToxRefDB 2

Assays:
mouse [1] = settings: Combined chronic toxicity/carcinogenicity, cd1, Oral, Feed, dose end: 104 week, group: systemic
rat [2] = settings: Prenatal developmental toxicity study; other; Oral; Gavage/Intubation; dose end: 19 GD; group: developmental; developmental / developmental malformation / ureter / hydroureter
rat [3] = settings: Multigenerational reproductive toxicity study, sprague dawley, Oral, Feed, dose end: 1 generation
rat [4] = settings: Prenatal developmental toxicity study, Osborne-Mendel, Oral, Water, dose end: 20 GD
mouse [5] = settings: Multigenerational reproductive toxicity study; cd1; Oral; Feed; dose end: 1 generation; group: parental; systemic / in life observation / food consumption / food consumption
rat [6] = settings: Combined chronic toxicity/carcinogenicity; sprague dawley; Oral; Feed; dose end: 118 week; group: systemic; systemic / in life observation / clinical signs / feces, discoloration
rat [7] = settings: Prenatal developmental toxicity study, wistar, Oral, Gavage/Intubation, dose end: 15 GD
dog [8] = settings: Chronic toxicity, beagle, Oral, Feed, dose end: 12 month, group: systemic
dog [9] = settings: Chronic toxicity; beagle; Oral; Feed; dose end: 52 week; group: systemic; systemic / clinical chemistry / cholesterol / cholesterol + systemic / clinical chemistry / creatinine / creatinine + systemic / clinical …
rat [10] = settings: Combined chronic toxicity/carcinogenicity; wistar; Oral; Feed; dose end: 2 year; group: systemic; systemic / clinical chemistry / alanine aminotransferase (alt/sgpt) / alanine aminotransferase (alt/sgpt) + systemic / clinical chemistry / …
dog [11] = settings: Subchronic oral toxicity in nonrodent, beagle, Feed, dose end: 90 day, group: systemic
dog [12] = settings: Subchronic oral toxicity in nonrodent, beagle, [Not Specified], dose end: 4 week, group: systemic, systemic / clinical chemistry / alanine aminotransferase (alt/sgpt) / alanine aminotransferase (alt/sgpt) + systemic / clinical chemistry / …
rat [13] = settings: Subchronic oral toxicity in rodents, wistar, Feed, dose end: 90 day, group: systemic
rat [14] = settings: Subchronic oral toxicity in rodents, wistar, Feed, dose end: 91 day, group: systemic, systemic / clinical chemistry / alanine aminotransferase (alt/sgpt) / alanine aminotransferase (alt/sgpt) + systemic / clinical chemistry / …
mouse [15] = settings: Carcinogenicity, b6c3f1, Oral, Feed, dose end: 2 year, group: systemic
rabbit [16] = settings: Prenatal developmental toxicity study, new zealand white, Oral, Gavage/Intubation, dose end: 18 GD
rabbit [17] = settings: Prenatal developmental toxicity study, new zealand white, Oral, Gavage/Intubation, dose end: 19 GD
rat [18] = settings: Multigenerational reproductive toxicity study, sprague dawley, Oral, Feed, dose end: 2 generation
rat [19] = settings: Combined chronic toxicity/carcinogenicity, sprague dawley, Oral, Feed, dose end: 24 month, group: systemic
rat [20] = settings: Prenatal developmental toxicity study, sprague dawley, Oral, Gavage/Intubation, dose end: 15 GD
dog [21] = settings: Chronic toxicity; beagle; Oral; Feed; dose end: 52 week; group: systemic; systemic / hematology / erythrocyte (rbc) count differential / erythrocyte (rbc) + systemic / hematology / platelet / platelet + systemic / …
[22] = systemic / organ weight / thyroid gland / absolute + systemic / organ weight / thyroid gland / relative to body weight
[23] = group: offspring, developmental / developmental landmark / vaginal opening / vaginal opening + systemic / in life observation / clinical signs / nocturnal …
[24] = group: offspring, developmental / offspring survival late / [other] / [other] + developmental / developmental landmark / vaginal opening / vaginal opening + …
[25] = group: parental, systemic / in life observation / body weight / body weight
[26] = group: reproductive, reproductive / reproductive performance / pregnancy / pregnancy
[27] = group: developmental, developmental / developmental malformation / bone / bipartite ossification + developmental / developmental malformation / bone / incomplete …
[28] = group: maternal, systemic / in life observation / water consumption / water consumption + reproductive / reproductive performance / reproductive performance …
[29] = group: developmental, developmental / developmental malformation / bone / incomplete ossification + developmental / developmental malformation / bone / …
[30] = group: maternal, systemic / in life observation / body weight / body weight gain + systemic / in life observation / food consumption / food consumption + …
[31] = systemic / clinical chemistry / cholesterol / cholesterol + systemic / clinical chemistry / creatinine / creatinine + systemic / clinical …
[32] = systemic / pathology microscopic / pituitary gland / cyst
[33] = systemic / clinical chemistry / [other] / [other]
[34] = systemic / clinical chemistry / [other] / [other] + systemic / clinical chemistry / alanine aminotransferase (alt/sgpt) / alanine …
[35] = systemic / hematology / blood clotting / blood clotting - clotting time + systemic / organ weight / kidney / absolute + systemic / organ …
[36] = group: developmental, developmental / developmental malformation / bone / delayed ossification + developmental / developmental malformation / bone / fused + …
[37] = group: maternal, reproductive / offspring survival early / live fetuses / live fetuses + systemic / organ weight / uterus / nos
[38] = group: developmental, developmental / developmental malformation / bone / fused
[39] = group: maternal, systemic / in life observation / body weight / body weight gain
[40] = group: offspring, systemic / in life observation / body weight / offspring (pup) weight
[41] = group: parental, systemic / in life observation / body weight / body weight + systemic / in life observation / body weight / body weight gain + systemic / in…
[42] = systemic / clinical chemistry / calcium / calcium + systemic / clinical chemistry / protein / protein + systemic / in life observation / …
[43] = systemic / organ weight / liver / relative to body weight
[44] = group: developmental, developmental / developmental malformation / bone / incomplete ossification
[45] = group: maternal, systemic / in life observation / clinical signs / alopecia + systemic / in life observation / clinical signs / blood around eyes and nose + …

COc1cc(S(=O)(=O)[O-])c(C)cc1N=Nc1c(O)ccc2cc(S(=O)(=O)[O-])ccc12.[Na+].[Na+]
LEL (mouse [1]; systemic / in life observation / food consumption / food consumption): 1880 mg/kg/day | NEL (mouse [1]; systemic / in life observation / food consumption / food consumption + systemic / pathology microscopic / lymph node / lymphoma nos): 507 mg/kg/day | LOAEL (mouse [1]; [22]): > 7320 mg/kg/day | NOAEL (mouse [1]; [22]): ≥ 7320 mg/kg/day | LEL (rat [2]): 200 mg/kg/day | LOAEL (rat [2]): > 200 mg/kg/day | NEL (rat [2]): 100 mg/kg/day | NOAEL (rat [2]): ≥ 200 mg/kg/day | LEL (rat [3]; [23]): 1250 mg/kg/day | NEL (rat [3]; [23]): < 1250 mg/kg/day | LOAEL (rat [3]; [24]): > 5000 mg/kg/day | NOAEL (rat [3]; [24]): ≥ 5000 mg/kg/day | LEL (rat [3]; [25]): 1250 mg/kg/day | LOAEL (rat [3]; [25]): > 5000 mg/kg/day | NEL (rat [3]; [25]): < 1250 mg/kg/day | NOAEL (rat [3]; [25]): ≥ 5000 mg/kg/day | LEL (rat [3]; [26]): 1250 mg/kg/day | LOAEL (rat [3]; [26]): > 5000 mg/kg/day | NEL (rat [3]; [26]): < 1250 mg/kg/day | NOAEL (rat [3]; [26]): ≥ 5000 mg/kg/day | LEL (rat [4]; [27]): 260 mg/kg/day | LOAEL (rat [4]; [27]): > 260 mg/kg/day | NEL (rat [4]; [27]): < 260 mg/kg/day | NOAEL (rat [4]; [27]): ≥ 260 mg/kg/day | LEL (rat [4]; [28]): 260 mg/kg/day | LOAEL (rat [4]; [28]): > 260 mg/kg/day | NEL (rat [4]; [28]): < 260 mg/kg/day | NOAEL (rat [4]; [28]): ≥ 260 mg/kg/day | LEL (mouse [5]): 2930 mg/kg/day | LOAEL (mouse [5]): > 2930 mg/kg/day | NEL (mouse [5]): 1420 mg/kg/day | NOAEL (mouse [5]): ≥ 2930 mg/kg/day | LEL (rat [6]): 701 mg/kg/day | LOAEL (rat [6]): > 2830 mg/kg/day | NEL (rat [6]): 180 mg/kg/day | NOAEL (rat [6]): ≥ 2830 mg/kg/day

Cc1cc(Cl)ccc1OCC(=O)O [MCPA]
LEL (rat [7]; [29]): 120 mg/kg/day | LOAEL (rat [7]; [29]): 120 mg/kg/day | NEL (rat [7]; [29]): 60 mg/kg/day | NOAEL (rat [7]; [29]): 60 mg/kg/day | LEL (rat [7]; [30]): 120 mg/kg/day | LOAEL (rat [7]; [30]): 120 mg/kg/day | NEL (rat [7]; [30]): 60 mg/kg/day | NOAEL (rat [7]; [30]): 60 mg/kg/day | LOAEL (dog [8]; [31]): 1.02 mg/kg/day | NOAEL (dog [8]; [31]): 0.21 mg/kg/day | LEL (dog [8]; [32]): 0.2 mg/kg/day | NEL (dog [8]; [32]): < 0.2 mg/kg/day | LEL (dog [9]): 1.02 mg/kg/day | LOAEL (dog [9]): 1.02 mg/kg/day | NEL (dog [9]): 0.21 mg/kg/day | NOAEL (dog [9]): 0.21 mg/kg/day | LEL (rat [10]): 5.7 mg/kg/day | LOAEL (rat [10]): 5.7 mg/kg/day | NEL (rat [10]): 1.4 mg/kg/day | NOAEL (rat [10]): 1.4 mg/kg/day | LEL (dog [11]; [33]): 3 mg/kg/day | LOAEL (dog [11]; [33]): 3 mg/kg/day | NEL (dog [11]; [34]): 1 mg/kg/day | NOAEL (dog [11]; [34]): 1 mg/kg/day | LEL (dog [12]): 8 mg/kg/day | LOAEL (dog [12]): 8 mg/kg/day | NEL (dog [12]): < 8 mg/kg/day | NOAEL (dog [12]): < 8 mg/kg/day | LOAEL (rat [13]; [35]): 32.6 mg/kg/day | NEL (rat [13]; [35]): 3.6 mg/kg/day | NOAEL (rat [13]; [35]): 10.9 mg/kg/day | LEL (rat [13]; systemic / organ weight / kidney / absolute): 10.9 mg/kg/day | LEL (rat [14]): 177 mg/kg/day | LOAEL (rat [14]): 177 mg/kg/day | NEL (rat [14]): 34 mg/kg/day | NOAEL (rat [14]): 34 mg/kg/day | LEL (mouse [15]; systemic / in life observation / body weight / body weight): 15.7 mg/kg/day | NEL (mouse [15]; systemic / in life observation / body weight / body weight + systemic / pathology microscopic / kidney / casts protein + systemic / …): 3.2 mg/kg/day | LOAEL (mouse [15]; systemic / pathology microscopic / kidney / hyperplasia): 19.5 mg/kg/day | NOAEL (mouse [15]; systemic / pathology microscopic / kidney / hyperplasia + systemic / in life observation / body weight / body weight + systemic / organ …): 3.9 mg/kg/day

C#CCOS(=O)OC1CCCCC1Oc1ccc(C(C)(C)C)cc1 (stereo unspecified) [Propargite]
LEL (rabbit [16]; group: developmental, developmental / developmental malformation / bone / delayed ossification): 6 mg/kg/day | LOAEL (rabbit [16]; [36]): > 18 mg/kg/day | NEL (rabbit [16]; [36]): 2 mg/kg/day | NOAEL (rabbit [16]; [36]): ≥ 18 mg/kg/day | LEL (rabbit [16]; [37]): 2 mg/kg/day | NEL (rabbit [16]; [37]): < 2 mg/kg/day | LOAEL (rabbit [16]; group: maternal, systemic / in life observation / body weight / body weight gain + reproductive / offspring survival early / live fetuses / live fetuses): 6 mg/kg/day | NOAEL (rabbit [16]; group: maternal, systemic / in life observation / body weight / body weight gain + reproductive / reproductive performance / implantations / implantations + …): 2 mg/kg/day | LEL (rabbit [17]; [38]): 10 mg/kg/day | LOAEL (rabbit [17]; [38]): 10 mg/kg/day | NEL (rabbit [17]; [38]): 8 mg/kg/day | NOAEL (rabbit [17]; [38]): 8 mg/kg/day | LEL (rabbit [17]; [39]): 8 mg/kg/day | LOAEL (rabbit [17]; [39]): 8 mg/kg/day | NEL (rabbit [17]; [39]): 6 mg/kg/day | NOAEL (rabbit [17]; [39]): 6 mg/kg/day | LEL (rat [18]; [40]): 40 mg/kg/day | LOAEL (rat [18]; [40]): 40 mg/kg/day | NEL (rat [18]; [40]): 20 mg/kg/day | NOAEL (rat [18]; [40]): 20 mg/kg/day | LEL (rat [18]; [41]): 20 mg/kg/day | LOAEL (rat [18]; [41]): 20 mg/kg/day | NEL (rat [18]; [41]): 4 mg/kg/day | NOAEL (rat [18]; [41]): 4 mg/kg/day | LOAEL (rat [19]; [42]): 19.2 mg/kg/day | NOAEL (rat [19]; [42]): 3.83 mg/kg/day | LEL (rat [19]; [43]): 2.95 mg/kg/day | NEL (rat [19]; [43]): < 2.95 mg/kg/day | LOAEL (rat [20]; group: developmental, developmental / developmental malformation / bone / absent + developmental / developmental malformation / bone / small): 25 mg/kg/day | LEL (rat [20]; [44]): 6 mg/kg/day | NEL (rat [20]; [44]): < 6 mg/kg/day | NOAEL (rat [20]; group: developmental, developmental / developmental malformation / bone / incomplete ossification + developmental / developmental malformation / bone / absent + …): 6 mg/kg/day | LEL (rat [20]; [45]): 105 mg/kg/day | LOAEL (rat [20]; [45]): > 450 mg/kg/day | NEL (rat [20]; [45]): 25 mg/kg/day | NOAEL (rat [20]; [45]): ≥ 450 mg/kg/day | LEL (dog [21]): 38 mg/kg/day | LOAEL (dog [21]): 38 mg/kg/day | NEL (dog [21]): 5 mg/kg/day | NOAEL (dog [21]): 5 mg/kg/day
